# Source: publication PMC8155809 (The Journal of General Physiology, 2021)
# Tests used:
# [1] = target: T1, WT TREK-2 (Homo sapiens, UniProt P57789); experiment: Single-channel recordings of WT TREK-2 in excised patches from HEK293 cells; type: cell-based
# T1 construct: full-length WT TREK-2 channels, we examined its effects on the mean open time of TREK-2 channels expressed in HEK293 cells; expressed in transfected cells; host or cells: HEK293 cells, transient transfection with pcDNA3
# T1 sequence (P57789 1-543 isoform P57789-4): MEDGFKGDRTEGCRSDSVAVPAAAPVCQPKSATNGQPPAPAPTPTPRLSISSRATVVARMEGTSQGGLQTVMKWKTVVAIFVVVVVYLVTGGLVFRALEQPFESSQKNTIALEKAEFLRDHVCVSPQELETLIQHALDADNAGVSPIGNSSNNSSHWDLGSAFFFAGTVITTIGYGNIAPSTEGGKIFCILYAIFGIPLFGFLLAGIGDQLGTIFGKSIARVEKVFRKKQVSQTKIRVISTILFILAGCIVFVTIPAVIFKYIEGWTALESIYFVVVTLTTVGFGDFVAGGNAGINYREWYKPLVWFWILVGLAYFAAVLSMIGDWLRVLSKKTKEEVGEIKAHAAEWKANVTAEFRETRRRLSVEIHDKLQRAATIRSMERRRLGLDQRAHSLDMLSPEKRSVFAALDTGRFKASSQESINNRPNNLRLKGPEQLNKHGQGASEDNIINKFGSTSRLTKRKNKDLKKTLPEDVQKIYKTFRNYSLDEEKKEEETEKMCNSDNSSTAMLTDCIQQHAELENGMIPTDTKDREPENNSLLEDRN
# Experimental: Full-length human TREK-2 isoform 3 (NCBI accession no. NP_612191) was used throughout this study and was subcloned into the pFAW vector for expression in oocytes. The truncated construct used to generate protein (TREK-2ΔN/ΔC) is identical to that used previously to obtain crystal structures ([Dong et al., 2015]); it contains a deletion of 71 residues at the N terminus and 213 residues at the C terminus. […] Desamino chloro-fluoxetine (Toronto Research Chemicals) was dissolved in chloroform and diluted to working concentrations on the day of experimenting (maximum final concentration was 0.01%).
# HEK293 cells were cultured in DMEM (Sigma) containing 10% FBS (Life Technologies), 3 mM glucose, and 2 mM glutamine at 37°C in a humidified atmosphere of 5% CO2/[…] at 37°C. Cells were transiently transfected with 0.2 µg channel pcDNA3 per dish using FuGENE 6 according to the manufacturer’s instructions. Cells were used 1–2 d after transfection.
# For currents recorded in Xenopus laevis oocytes, giant-patch electrodes were pulled from thick-walled borosilicate glass and polished to give pipette resistances of ∼0.3–0.5 MΩ when filled with patch solution. Pipette solution contained (in mM) 116 NMDG, 4 KCl, 1 MgCl2, 3.6 CaCl2, and 10 HEPES (pH 7.4), while the bath solution contained (in mM) 120 KCl, 1 NaCl, 2 EGTA, and 10 HEPES (pH 7.3). Patches were perfused via a gravity-flow perfusion system and a HEKA EPC 10 USB single computer–controlled amplifier was used and currents recorded using a Patchmaster v2 × 90.5 (HEKA Electronics), filtered at 1 kHz, and sampled at 10 kHz. For currents recorded in HEK293 cells, patch electrodes were pulled from thick-walled borosilicate glass and polished to give pipette resistances of ∼3–5 MΩ when filled with patch solution. The currents were recorded from excised patches with both intracellular and extracellular solution containing 200 mM KCl and 10 mM HEPES (pH 6.0 with KOH). Patches were perfused via a gravity-flow perfusion system. Data were acquired with pClamp and recorded using an Axopatch 200B (Molecular Devices), filtered at 5 kHz, and sampled at 200 kHz. Single-channel currents were analyzed in an identical manner to those obtained from bilayers (see above).
# [2] = Electrostriction measurement of membrane elasticity; type: physicochemical; details: 1–1,000 µM NFx
# Experimental: Membrane elasticity measurements were performed as described previously ([Vitovic et al., 2013]). Briefly, a 1 kHz sine wave with an amplitude of 100 mV was applied to the membrane using a wave generator (Rigol DG821; Rigol Technologies). Due to the nonlinear dependence of membrane capacitance on the voltage V [C = C0 (1 + αV^2)], where C0 is the capacitance at V = 0 and α is the electrostriction coefficient, a third current harmonic with frequency 3 kHz and amplitude A3 is generated in addition to the basic first current harmonic, A1 (frequency 1 kHz).
compound,measurement,setting,value
"NCCC(Oc1ccc(C(F)(F)F)cc1)c1ccccc1 (centres unmarked) [NFx, norfluoxetine]",mean Po,"[1]; 10 µM NFx in the presence of 100 µM ML335, −40 mV",0.69 ± 0.2
same,amplitude ratio of γ,"[1]; 10 µM NFx in the presence of 100 µM ML335 vs ML335 alone, −40 mV",1.00 ± 0.01
same,reduction of τo (mean open time),"[1]; 10 µM NFx, Fig. S6",~30%
same,reduction of Po of WT TREK-2 channel,"[1]; 10 µM NFx, no further change in the presence of NFx, as in Fig. S6",79 ± 0.05%
same,τo (mean open time),"[1]; 10 µM NFx, −10 mV",0.89 ms
same,reduction in γ (single-channel current amplitude),"[1]; 10 µM, −40 mV (Fig. 6B)",11 ± 7%
same,reduction of channel Po,"[1]; 10 µM, −40 mV (Fig. 6B)",70 ± 0.03%
same,effect on the modulus of elasticity (E⊥),[2],no obvious effect
